Patent US20070129415A1, “Method of Treating Isolated Systolic Hypertension” (priority 1997, published 2007)

System: prejunctional AII receptors and sympathetic outflow
Assay: Spinal cord-stimulated pithed rats: pressor response to stimulation of sympathetic vasomotor outflow
Assay type: in vivo, Sprague-Dawley rats
Conditions: pithed rat; for inhibition of the pressor responses mediated by sympathetic nervous system activation (spinal cord stimulation): 0.3 mg/kg, i.v. 10 min before second frequency-response curve, 50 V, 1 msec, 0.3-5.0 Hz
Protocol: Normotensive male Sprague-Dawley rats (300-350 gm) were anesthetized with Brevital (10 mg/kg, i.v.), a tracheostomy was performed and the rats were then pithed by inserting a steel rod (1.5 mm in diameter) through the orbit and foramen magnum into the spinal cord. Immediately after pithing, rats were ventilated artificially with room air using a rodent respirator at a frequency of 60 cycles/min with a volume of 2 ml/100 gm body weight. The pithing rod was insulated except for a 6-cm section distal from the tip. Body temperature was maintained at 37-38° C. by a thermostatic heating pad. Animals were treated with tubocurararine (1 mg/kg, i.v) and atropine (1 mg/kg, i.v.), to prevent muscle movement during spinal cord stimulation and parasympathetic effects, respectively. Systemic arterial blood pressure was measured from the right carotid artery by a Statham P23 pressure transducer and recorded on a Grass polygraph. The left jugular vein was cannulated for i.v. administration of drugs.
Stimulation of sympathetic vasomotor outflow was accomplished by a consecutive train of stimulation (50 V, 1 msec, 0.3-5.0 Hz) which was delivered for 15 sec at each frequency. […] For all the compounds evaluated, this dose provided effective blockade of the pressor response to exogenous AII (100 ng/kg, i.v.). Each rat served as its own control.
AII data are shown as the means±S.E.M. of the number (n) of observations. Statistical significance of the differences between drug-treated animals and vehicle-control animals was tested by a one-way analysis of variance with a P valued of 0.05 accepted as significant.

Row | Compound | inhibition of the pressor responses mediated by sympathetic nervous system activation (spinal cord stimulation) | also measured
1 | CCCCc1ncc(/C=C(\Cc2cccs2)C(=O)O)n1Cc1ccc(C(=O)O)cc1 [Eprosartan, (E)-α-[2-n-butyl-1-[(4-carboxyphenyl)methyl]-1H-imidazol-5-yl]methylene-2-thiophenepropionic acid monomethanesulfonate] | significant inhibition | –
2 | CCCCc1nc(Cl)c(CO)n1Cc1ccc(-c2ccccc2-c2nn[nH]n2)cc1 [losartan] | neither losartan, valsartan, or irbesartan produced significant inhibition | –
3 | angiotensin II (DRVYIHPF; Angiotensin-2; UniProt P01019 25-32, looked up) [AII, angiotensin II (AII), infused at a sub-pressor dose] | – | shift of the frequency-response curve (pressor response to spinal cord stimulation) (continuous infusion of a sub-pressor dose, 40 ng/kg/min): significant leftward shifts
4 | CCCCC(=O)N(Cc1ccc(-c2ccccc2-c2nnn[nH]2)cc1)[C@H](C(=O)O)C(C)C [valsartan] | neither losartan, valsartan, or irbesartan produced significant inhibition | –
5 | CCCCC1=NC2(CCCC2)C(=O)N1Cc1ccc(-c2ccccc2-c2nnn[nH]2)cc1 [irbesartan] | neither losartan, valsartan, or irbesartan produced significant inhibition | –
6 | Sar^1-Ile^8[AII] | – | inhibition of the increase in pressor response to spinal cord stimulation (continuous infusion 10 ug/kg/min): significantly inhibited
